Series [1] concerns the target MCL-1 (Homo sapiens, UniProt Q07820). Description: Protein-protein interaction assay MCL-1/Noxa BH3 peptide (MCL-1 assay), TR-FRET. It counts as binding. To be noted: MBP-MCL-1 / Noxa BH3-derived peptide, median. The gist of the method: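 TR-FRET, 665/622 nm emission ratio (excitation 330–350 nm), measured MCL-1/Noxa complex formation. 1 nM MBP-MCL-1, 50 mM Tris/HCl pH 7, 0.1% BGG, 2 mM DTT. Incubation 1 h at 22 °C, then overnight at 4 °C. IC50 by 4-parameter regression, normalized to DMSO (0%) and no-MCL-1 (100%) controls.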
On the technique in general: In TR-FRET formats the signal depends on donor and acceptor labels being close together.

Series [2] concerns SUDHL5. Description: Induction of caspase-3/7 activity (Caspase-Glo 3/7), SUDHL5. It counts as cell-based. The settings on record: caspase-3/7 induction, SUDHL5 cells, 3 h treatment; median. The essentials:
(§1)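 DLBCL cells treated with compounds for 3 h at 37 °C, then caspase-3/7 activity read by Caspase-Glo 3/7 luminescence. Medium-only background subtracted; EC50 fitted with C0 fixed at 1 and top set to the reference compound's maximal induction.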

The subject of series [3] is SUDHL10. In words: Induction of caspase-3/7 activity (Caspase-Glo 3/7), SUDHL10. The settings on record: caspase-3/7 induction, SUDHL10 cells, 3 h treatment; median. The series is classed as cell-based. The gist of the method: as §1
In series [4] the test system is SUDHL5. In words: Anti-proliferative effect (CellTiter-Glo, 72 h), SUDHL5. The settings on record: SUDHL5 cells, antiproliferation, 72 h incubation, median, read-out: Antiproli SUDHL5 [M] (median). The series is classed as cell-based. The gist of the method: (§2)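 Cells were treated with compounds for 72 h at 37 °C in a humidified incubator, and viability was measured by CellTiter-Glo luminescence. A parallel day 0 plate, read the same way, gave the time zero baseline.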
Background: In ATP-based viability assays light output follows the ATP content of the culture.

Series [5] has as its system SUDHL10. Description: Anti-proliferative effect (CellTiter-Glo, 72 h), SUDHL10. The series is classed as cell-based. The settings on record: SUDHL10 cells, antiproliferation, 72 h incubation, median, read-out: Antiproli SUDHL10 [M] (median). The gist of the method: as §2
Series [6] concerns OPM2. Description: Anti-proliferative effect (CellTiter-Glo, 72 h), OPM2. The series is classed as cell-based. To be noted: OPM2 cells, median, read-out: IC50 antiproliferation assay OPM2 [M] (median). The gist of the method: as §2
Series [7] relates to A2780. In words: Anti-proliferative effect (CellTiter-Glo, 72 h), A2780. To be noted: A2780 cells, median, read-out: IC50 antiproliferation assay A2780 [M] (median). It counts as cell-based. The gist of the method: as §2
Series [8] concerns SUDHL5. Description: Induction of cytotoxicity (CellTiter-Glo, 5 h), SUDHL5. To be noted: read-out: Cytotox SUDHL5 [M] (median); SUDHL5 cells, cytotoxicity induction, CellTiter-Glo, 5 h incubation, median.
The subject of series [9] is SUDHL10. In words: Induction of cytotoxicity (CellTiter-Glo, 5 h), SUDHL10. The settings on record: read-out: Cytotox SUDHL10 [M] (median); SUDHL10 cells, cytotoxicity induction, CellTiter-Glo, 5 h incubation, median.

“And” between values parts separate entries of the source, which are not always exact repeats. Identical values can stand only once. Counter-ions that a name gives are not always drawn. Like-named read-outs stand apart in the source and are kept apart here.

MCL-1, sequence (Q07820 whole entry): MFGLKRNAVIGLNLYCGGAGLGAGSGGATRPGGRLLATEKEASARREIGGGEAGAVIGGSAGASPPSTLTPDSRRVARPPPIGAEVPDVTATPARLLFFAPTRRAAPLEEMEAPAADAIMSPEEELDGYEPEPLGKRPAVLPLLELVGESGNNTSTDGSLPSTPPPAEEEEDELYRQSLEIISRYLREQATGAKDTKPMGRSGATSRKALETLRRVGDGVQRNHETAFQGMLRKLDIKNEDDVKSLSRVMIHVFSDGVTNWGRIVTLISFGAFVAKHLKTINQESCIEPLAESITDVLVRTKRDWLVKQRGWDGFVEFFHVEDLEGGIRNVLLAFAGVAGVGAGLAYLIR

As a reminder, the EC50 is the concentration that produces a half-maximal response. A low value points to higher potency in that assay. With `CCOCc1nn(C)c2c1-c1cccc3c(CCCOc4cccc5c4CCCC5)c(C(=O)O)n(c13)CCCCOC2` (single isomer, unassigned; enantiomer 1) [Example 171, 3-(ethoxymethyl)-1-methyl-7-[3-(5,6,7,8-tetrahydronaphthalen-1-yloxy)propyl]-1,10,11,12,13,15-hexahydropyrazolo[4′,3′:9,10][1,6]oxazacycloundecino[8,7,6-hi]indole-8-carboxylic Acid (Enantiomer 1)], the IC50 is 0.00268 µM in [1]; 2.24e-06 M in [4] (Homo sapiens, SU-DHL-5, 72 h); 6.45e-06 M in series [5]; 1.23e-05 M in series [6]; over 3.3e-05 M in [7] (Homo sapiens, A2780, 72 h); 5.08e-06 M in series [8]. In addition, the IC50 in series [9] turned out to be 1.39e-05 M. Also, the EC50 in series [2] is 6.48 µM; in series [3], 13.4 µM.

As for `CN(C)S(=O)(=O)N1CCN(c2ccc(OCc3nn(C)c4c3-c3cccc5c(CCCOc6cccc7ccccc67)c(C(=O)O)n(c35)CCCCOC4)cc2)CC1` (single isomer, unassigned; enantiomer 2) [Example 1-20, 3-({4-[4-(dimethylsulfamoyl)piperazin-1-yl]phenoxy}methyl)-1-methyl-7-[3-(naphthalen-1-yloxy)propyl]-1,10,11,12,13,15-hexahydropyrazolo[4′,3′:9,10][1,6]oxazacycloundecino[8,7,6-hi]indole-8-carboxylic Acid (Enantiomer 2)], the IC50 in series [1] stood at 0.00285 µM; in series [4] it was 1.25e-06 M; in [5] (Homo sapiens, SU-DHL10, 72 h) it was 2.19e-06 M; in series [6] (Homo sapiens, OPM-2, 72 h), 2.32e-06 M; in series [7] (Homo sapiens, A2780, 72 h), 1.38e-05 M; in [8] it was 2.11e-06 M. In series [9], the IC50 is 3.06e-06 M. Moreover, the EC50 in [2] was determined as 1.63 µM; in series [3] it was 1.95 µM.

Turning to `Cn1nc(COc2ccc(N3CCN(C(=O)C4CC4)CC3)cc2)c2c1COCCCCn1c(C(=O)O)c(CCCOc3cccc4ccccc34)c3cccc-2c31` (single isomer, unassigned; enantiomer 2) [Example 1-23, 3-({4-[4-(cyclopropylcarbonyl)piperazin-1-yl)phenoxy]methyl}-1-methyl-7-[3-(naphthalen-1-yloxy)propyl]-1,10,11,12,13,15-hexahydropyrazolo[4′,3′:9,10][1,6]oxazacycloundecino[8,7,6-hi]indole-8-carboxylic acid (enantiomer 2)], the IC50 in series [1] stood at 0.0323 µM; in [4], 1.15e-05 M; in series [5] it was 5.59e-06 M; in [6], 1.7e-05 M; in series [7], 1.43e-05 M; in series [8] it was 2.45e-05 M. Besides, in series [9], the IC50 is over 3.3e-05 M. Besides, the EC50 in [2] turned out to be 21.3 µM; in [3], 23 µM.

On to `Cc1nn(C)c2c1-c1cccc3c(CCCOc4cccc5ccccc45)c(C(=O)O)n(c13)CCCN(C)C2` (single isomer, unassigned; enantiomer 2) [Example 1-32, 7,9,11-trimethyl-1-[3-(naphthalen-1-yloxy)propyl]-4,5,6,7,8,9-hexahydropyrazolo[3′,4′:7,8][1,5]diazecino[9,10,1-hi]indole-2-carboxylic Acid-N-ethylethanamine Salt (Enantiomer 2)], for which the IC50 in series [1] is 0.0492 µM; in [4], 1.63e-05 M; in [5], 1.18e-05 M; in series [6], 2.76e-05 M; in [7], 1.82e-05 M; in [8], over 3.3e-05 M. In series [9], the IC50 was determined as 3.23e-05 M. Also, the EC50 was over 33 µM in [2]; 22.9 µM and 20.4 µM and > 33 µM in [3].

Consider `Cc1c2c(nn1C)COCCCCn1c(C(=O)O)c(CCCOc3cccc4ccccc34)c3cccc-2c31` (single isomer, unassigned; enantiomer 2) [Example 1-38, (−)-2,3-dimethyl-7-[3-(naphthalen-1-yloxy)propyl]-2,10,11,12,13,15-hexahydropyrazolo[4′,3′:9,10][1,6]oxazacycloundecino[8,7,6-hi]indole-8-carboxylic Acid (Enantiomer 2)], for which the IC50 in series [1] is 0.0751 µM; in [4], 2.3e-05 M; in series [5], 1.49e-05 M; in series [6], 3.22e-05 M; in [7], over 3.3e-05 M; in series [8], over 3.3e-05 M. In addition, the IC50 in [9] is over 3.3e-05 M. For the same compound, the concentration giving a half-maximal response (EC50) in [2] and in [3] was over 33 µM throughout.

As to `Cc1nn(C)c2c1-c1cccc3c(CCCOc4cccc5ccccc45)c(C(=O)O)n(c13)CCCN(c1ccc(N3CCOCC3)cc1)C2` (single isomer, unassigned; enantiomer 2) [Example 1-100, 9,11-Dimethyl-7-[4-(morpholin-4-yl)phenyl]-1-[3-(1-naphthyloxy)propyl]-4,5,6,7,8,9-hexahydropyrazolo[3′,4′:7,8][1,5]diazecino[9,10,1-hi]indole-2-carboxylic Acid (Enantiomer 2)], the IC50 was 0.0359 µM in [1]; 9.42e-06 M in series [4]; 6.21e-06 M in series [5]; 1.94e-05 M in series [6]; 1.38e-05 M in series [7]; over 3.3e-05 M in series [8]. Also, the IC50 in series [9] was > 3.3e-05 M and 3.29e-05 M. For the same compound, the concentration giving a half-maximal response (EC50) was 28.4 µM in series [2]; > 33 µM and 30.6 µM in series [3].

With `CCS(=O)(=O)N1CCN(c2ccc(N3CCCn4c(C(=O)O)c(CCCOc5cccc6ccccc56)c5cccc(c54)-c4c(C)nn(C)c4C3)cc2)CC1` (single isomer, unassigned; enantiomer 2) [Example 1-110, 7-{4-[4-(Ethylsulfonyl)piperazin-1-yl]phenyl}-9,11-dimethyl-1-[3-(1-naphthyloxy)propyl]-4,5,6,7,8,9-hexahydropyrazolo[3′,4′:7,8][1,5]diazecino[9,10,1-hi]indole-2-carboxylic Acid (Enantiomer 2)], the IC50 is 0.0581 µM in series [1]; 4.04e-06 M in series [4]; 2.58e-06 M in series [5]; 8.62e-06 M in [6]; 7.54e-06 M in series [7]; 1.53e-05 M in series [8]. In addition, the IC50 in series [9] is 1.69e-05 M. The EC50 in series [2] and in [3] was 15.3 µM in each case.

`CN1CCCn2c(C(=O)O)c(CCCOc3cccc4ccccc34)c3cccc(c32)-c2c(COc3ccc(-n4ccccc4=O)cc3)nn(C)c2C1` (single isomer, unassigned; enantiomer 2) [Example 1-116, 7,9-Dimethyl-1-[3-(1-naphthyloxy)propyl]-11-{[4-(2-oxopyridin-1(2H)-yl)phenoxy]methyl}-4,5,6,7,8,9-hexahydropyrazolo[3′,4′:7,8][1,5]diazecino[9,10,1-hi]indole-2-carboxylic Acid (Enantiomer 2)]: the IC50 in series [1] is 0.0137 µM; in [4] it was 3.25e-06 M; in series [5], 1.18e-05 M; in [6], 2.96e-05 M; in series [7] (Homo sapiens, A2780, 72 h), over 3.3e-05 M; in series [8], 1.32e-05 M. For the same compound, the IC50 in [9] is over 3.3e-05 M. Also, the 50% effective concentration (EC50) in [2] is 16.9 µM; in series [3], 19.9 µM.

As to `Cn1nc(COc2ccc(N3CCOCC3)cc2)c2c1COCCCCn1c(C(=O)O)c(CCCOc3cccc4ccccc34)c3cccc-2c31` (single isomer, unassigned; enantiomer 2) [Example 123, 1-methyl-3-{[4-(morpholin-4-yl)phenoxy]methyl}-7-[3-(naphthalen-1-yloxy)propyl]-1,10,11,12,13,15-hexahydropyrazolo[4′,3′:9,10][1,6]oxazacycloundecino[8,7,6-hi]indole-8-carboxylic Acid (Enantiomer 2)], the IC50 is 0.00314 µM in series [1]; 2.28e-06 M in series [4]; 1.01e-05 M in [5]; 4.32e-06 M in series [6]; 1.14e-05 M in series [7]; 3.13e-06 M in series [8]. Moreover, in series [9], the IC50 amounted to 2.1e-05 M. For the same compound, the figures for the half-maximal effective concentration (EC50) in series [2] and in series [3] were 4.11 µM and 7.36 µM, respectively.
